According to BindingDB's records for doi:10.1074/jbc.M113.476234 (The Scripps Research Institute, 2013):

How the values were obtained:
[1] = target: T1, Kappa-type opioid receptor (Homo sapiens, UniProt P41145); assay: [35S]GTPγS Coupling Assay
[2] = target: T1, Kappa-type opioid receptor; assay: β-Arrestin2 Assay

T1 sequence (P41145 whole entry): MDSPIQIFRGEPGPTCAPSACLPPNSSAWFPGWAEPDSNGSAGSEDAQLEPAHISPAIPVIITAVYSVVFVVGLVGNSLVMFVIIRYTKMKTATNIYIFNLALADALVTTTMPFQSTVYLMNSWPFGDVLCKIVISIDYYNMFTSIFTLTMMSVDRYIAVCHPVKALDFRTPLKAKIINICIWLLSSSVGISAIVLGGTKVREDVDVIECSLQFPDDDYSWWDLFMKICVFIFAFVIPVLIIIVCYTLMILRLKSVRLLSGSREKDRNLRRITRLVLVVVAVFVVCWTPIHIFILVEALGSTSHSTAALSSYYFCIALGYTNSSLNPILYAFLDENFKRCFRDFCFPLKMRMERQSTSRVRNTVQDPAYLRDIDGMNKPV

SMILES: NC(N)=Nc1ccc2[nH]c3c(c2c1)C[C@@]1(O)[C@@H]2Cc4ccc(O)c5c4[C@@]1(CCN2CC1CC1)[C@H]3O5 [5'-Guanidinonaltrindole (5'-GNTI)]
- IC50 [1]: 0.07 nM
- IC50 [2]: 0.8 nM
